Measured values published in the supplement of paper PMC10307832.

How the values were obtained:
Assay in all cases: relative viability (nuclei count vs DMSO), 5 days (fraction); higher = more cells survive
[1] = system: PC-14
Summary of the method: (§1)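 Relative viability was taken as the ratio of nuclei in treated wells to nuclei in vehicle wells. Lung cancer cell lines in 1536-well plates received compounds by pin tool one day after seeding, either one drug alone or a fixed anchor-drug dose plus five library-drug doses (not always all listed) in √10 steps. Nuclei were counted on 4× images after 5 days of treatment, and values are medians of duplicate plates.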

[2] = system: NCI-H2347
Summary of the method: as §1

[3] = system: NCI-H2126
Summary of the method: as §1

[4] = system: LCLC-97TM1
Summary of the method: as §1

[5] = system: NCI-H1915
Summary of the method: as §1

[6] = system: NCI-H322M
Summary of the method: as §1

[7] = system: NCI-H647
Summary of the method: as §1

[8] = system: NCI-H727
Summary of the method: as §1

[9] = system: HOP-62
Summary of the method: as §1

[10] = system: NCI-H2342
Summary of the method: as §1

[11] = system: EMC-BAC-2
Summary of the method: as §1

[12] = system: LXF-289
Summary of the method: as §1

[13] = system: NCI-H1993
Summary of the method: as §1

[14] = system: H3255
Summary of the method: as §1

[15] = system: EPLC-272H
Summary of the method: as §1

[16] = system: NCI-H2085
Summary of the method: as §1

## O=C(O)c1ccc(-c2c[nH]c3ncc(-c4ccccc4)cc23)cc1C1CCCC1 + NC(=O)Nc1cc(-c2cccc(F)c2)sc1C(=O)N[C@H]1CCCNC1 [AZD7762] (partner 0.2 µM)
[1]; first compound 0.04 µM
  relative viability: 0.335
[1]; first compound 0.1265 µM
  relative viability: 0.414
[1]; first compound 0.4 µM
  relative viability: 0.407
[1]; first compound 1.265 µM
  relative viability: 0.39
[2]; first compound 0.04 µM
  relative viability: 0.821
[2]; first compound 0.1265 µM
  relative viability: 0.935
[2]; first compound 0.4 µM
  relative viability: 0.797
[2]; first compound 1.265 µM
  relative viability: 0.878
[3]; first compound 0.04 µM
  relative viability: 1.02
[3]; first compound 0.1265 µM
  relative viability: 1.11
[3]; first compound 0.4 µM
  relative viability: 1.08
[3]; first compound 1.265 µM
  relative viability: 1
[4]; first compound 0.04 µM
  relative viability: 0.278
[4]; first compound 0.1265 µM
  relative viability: 0.368
[4]; first compound 0.4 µM
  relative viability: 0.302
[4]; first compound 1.265 µM
  relative viability: 0.268
[5]; first compound 0.04 µM
  relative viability: 0.681
[5]; first compound 0.1265 µM
  relative viability: 0.64
[5]; first compound 0.4 µM
  relative viability: 0.77
[5]; first compound 1.265 µM
  relative viability: 0.764
[6]; first compound 0.04 µM
  relative viability: 0.585
[6]; first compound 0.1265 µM
  relative viability: 0.631
[6]; first compound 0.4 µM
  relative viability: 0.625
[6]; first compound 1.265 µM
  relative viability: 0.65
[7]; first compound 0.04 µM
  relative viability: 0.437
[7]; first compound 0.1265 µM
  relative viability: 0.55
[7]; first compound 0.4 µM
  relative viability: 0.489
[7]; first compound 1.265 µM
  relative viability: 0.408
[8]; first compound 0.04 µM
  relative viability: 0.459
[8]; first compound 0.1265 µM
  relative viability: 0.672
[8]; first compound 0.4 µM
  relative viability: 0.679
[8]; first compound 1.265 µM
  relative viability: 0.612
[9]; first compound 0.04 µM
  relative viability: 0.618
[9]; first compound 0.1265 µM
  relative viability: 0.795
[9]; first compound 0.4 µM
  relative viability: 0.637
[9]; first compound 1.265 µM
  relative viability: 0.674
[10]; first compound 0.04 µM
  relative viability: 0.41
[10]; first compound 0.1265 µM
  relative viability: 0.467
[10]; first compound 0.4 µM
  relative viability: 0.535
[10]; first compound 1.265 µM
  relative viability: 0.459
[11]; first compound 0.04 µM
  relative viability: 1.1
[11]; first compound 0.1265 µM
  relative viability: 1.38
[11]; first compound 0.4 µM
  relative viability: 1.23
[11]; first compound 1.265 µM
  relative viability: 0.981
[12]; first compound 0.04 µM
  relative viability: 1.07
[12]; first compound 0.1265 µM
  relative viability: 1.25
[12]; first compound 0.4 µM
  relative viability: 1.02
[12]; first compound 1.265 µM
  relative viability: 0.922
[13]; first compound 0.04 µM
  relative viability: 0.776
[13]; first compound 0.1265 µM
  relative viability: 0.814
[13]; first compound 0.4 µM
  relative viability: 0.832
[13]; first compound 1.265 µM
  relative viability: 0.615
[14]; first compound 0.04 µM
  relative viability: 0.79
[14]; first compound 0.1265 µM
  relative viability: 0.991
[14]; first compound 0.4 µM
  relative viability: 0.953
[14]; first compound 1.265 µM
  relative viability: 0.88
[15]; first compound 0.04 µM
  relative viability: 0.246
[15]; first compound 0.1265 µM
  relative viability: 0.32
[15]; first compound 0.4 µM
  relative viability: 0.21
[15]; first compound 1.265 µM
  relative viability: 0.246
[16]; first compound 0.04 µM
  relative viability: 0.944
[16]; first compound 0.1265 µM
  relative viability: 1.09
[16]; first compound 0.4 µM
  relative viability: 1.03
[16]; first compound 1.265 µM
  relative viability: 0.871
